The record followed here is patent publication US10174013B2, “Benzimidazole derivatives as kinase inhibitors” (SELVITA S.A., priority 2012, dated 2019).

The target of test [1] is Pim-1 (Homo sapiens (Human), UniProt P11309). As to the kind of experiment: ADP-Glo Kinase Assay, Pim-1. The class given is biochemical. To be noted: 1 μM compound; for inhibition at 1 µM: read-out: Pim-1 % INH (1 μM). As to the method: (§1) Compounds of the present invention were tested for their inhibitory activity against Pim-1, Pim-2, Pim-3, Flt3 wt, Flt3 ITD, CDK2/E and DYRK1. The testing of the compounds was carried out using the ADP-Glo™ Kinase Assay from Promega Corporation (Madison, Wis., USA).
(§2) The ADP-Glo™ Kinase Assay is a luminescent ADP detection assay to measure kinase activity by quantifying the amount of ADP produced during a kinase reaction. The kinase assay is performed in kinase assay buffer (5 mM MOPS, pH 7.5, 5 mM MgCl2, 0.4 mM EDTA, 1.5 mM DTT). Test samples initially dissolved in DMSO at 10 mM were diluted with the assay buffer to 1000 nM. A 30 μL volume/well of a mixture of substrates containing ATP (final ATP concentration in each kinase assay was equal to its apparent ATP Km).
(§3) The assay was performed in two steps: first, after the kinase reaction, an equal volume of ADP-Glo™ Reagent was added to terminate the kinase reaction and deplete the remaining ATP. Second, the Kinase Detection Reagent was added to simultaneously convert ADP to ATP and allowed the newly synthesized ATP to be measured using a luciferase/luciferin reaction. The luminescent signal generated was proportional to the ADP concentration produced and was correlated with kinase activity. A microplate spectrophotometer (Synergy 2 multi-mode microplate reader [BioTek]) was used for detecting the luminescence. The data was normalized and the percent of inhibition was obtained according to the following equation: […]
On the technique in general: ADP-Glo first removes unused ATP, then detects ADP through luciferase.

The test system of test [2] is HepG2 cells. The test is described as follows: Growth inhibition, MTS assay, HepG2. Conditions: MTS cell viability, read-out: HepG2 ED50. It is filed as cell-based, Human. The text has this:
(§4) The following cell lines, were obtained and used in tests as outlined below: • Human myelomonocytic, biphenotypic leukemia MV4-11 cells (harboring a Flt3-ITD mutation); • Human Acute Myeloid Leukemia MOLM16 cells; • Human Acute Myeloid Leukemia MOLM13 cells (harboring a Flt3-ITD mutation); • Human Myeloid Leukemia KG-1 cells; • Human erythroleukemia HEL92 cells; • Human mantle cell lymphoma Jeko-1 cells; • Human hepatocellular carcinoma HepG2 cells; and • Human colon adenocarcinoma SW-480 cells.
(§5) The assays were carried out according to the following protocol, which is described as an example for the MV4-11 cells:
(§6) Ten thousand MV4-11 cells were inoculated into each well of a 96-well microplate (manufactured by Corning Corp.) using Iscove's MDM medium (culture medium) containing 10% fetal calf serum (FCS). The same day, a dimethyl sulfoxide (DMSO) solution of each test compound prepared in a concentration of 10 mmol/L was further diluted with DMSO to the desired concentrations (0.1, 0.5, 1, 2.5, 5 and 10 micromol/L), and the diluted solution was added to each well. The individual wells were further cultured in 5% carbon dioxide at 37° C. for 72 hours. […] Briefly, 10 μl MTS (3-(4,5-Dimethyl-2-thiazolyl)-5-(carboxymethoxyphenyl)-2-(4-sulfophenyl)-2H-tetrazolium was added to each well, and culturing was performed in 5% carbon dioxide at 37° C. for 2 hours. After this incubation and using a microplate spectrophotometer (Synergy 2 multi-mode microplate reader (BioTek)), the absorbance of each well was measured at 490 nm. The value for cells not incubated with a test compound was designated as 100%. By comparing these values with the absorbance difference obtained at the well in which each test compound was added, the cell viability (% viability) after treatment with the test compound was calculated.
For orientation: Formazan colour is commonly taken as a measure of viable cells.

The target in test [3] is Pim-3 (Homo sapiens (Human), UniProt Q86V86). The test is described as follows: ADP-Glo Kinase Assay, Pim-3. It is filed as biochemical. Conditions: 1 μM compound; for inhibition at 1 µM: read-out: Pim-3 % INH (1 μM). As to the method: as §1, §2, §3
Test [4] addresses FLT3wt (Homo sapiens (Human), UniProt P36888). As to the kind of experiment: ADP-Glo Kinase Assay, Flt3 wt. To be noted: 1 μM compound; for inhibition at 1 µM: read-out: Flt3wt % INH (1 μM). It is filed as biochemical. As to the method:
as §1, §2, §3

Test [5] deals with MV4-11 cells. As to the kind of experiment: Growth inhibition, MTS assay, MV4-11. The class given is cell-based, Human. Conditions: MTS cell viability, read-out: MV4-11 ED50.
Source text: as §4, §5, §6

Test [6] concerns the target DYRK1 (Homo sapiens (Human), UniProt Q13627). As to the kind of experiment: ADP-Glo Kinase Assay, DYRK1. The class given is biochemical. Conditions: 1 μM compound; for inhibition at 1 µM: read-out: DYRK1A % INH (1 μM). Here is the method:
as §1, §2, §3

Test [7] deals with HEL92 cells. As to the kind of experiment: Growth inhibition, MTS assay, HEL92. It is filed as cell-based, Human. Conditions: MTS cell viability, read-out: HEL92 ED50.
Source text: as §4, §5, §6

The target in test [8] is Pim-2 (Homo sapiens (Human), UniProt Q9P1W9). As to the kind of experiment: ADP-Glo Kinase Assay, Pim-2. The class given is biochemical. To be noted: 1 μM compound; for inhibition at 1 µM: read-out: Pim-2 % INH (1 μM). As to the method: as §1, §2, §3
Test [9] concerns the target CDK2/E (Homo sapiens (Human), UniProt P24941). The test is described as follows: ADP-Glo Kinase Assay, CDK2/E. The class given is biochemical. Conditions: 1 μM compound; for inhibition at 1 µM: read-out: CDK2/E % INH (1 μM). Here is the method:
as §1, §2, §3

Read-outs that look alike come from different tables or passages of the source. A value given as a limit tells only on which side of the number the result lay.

Chain of Pim-1 (P11309 whole entry): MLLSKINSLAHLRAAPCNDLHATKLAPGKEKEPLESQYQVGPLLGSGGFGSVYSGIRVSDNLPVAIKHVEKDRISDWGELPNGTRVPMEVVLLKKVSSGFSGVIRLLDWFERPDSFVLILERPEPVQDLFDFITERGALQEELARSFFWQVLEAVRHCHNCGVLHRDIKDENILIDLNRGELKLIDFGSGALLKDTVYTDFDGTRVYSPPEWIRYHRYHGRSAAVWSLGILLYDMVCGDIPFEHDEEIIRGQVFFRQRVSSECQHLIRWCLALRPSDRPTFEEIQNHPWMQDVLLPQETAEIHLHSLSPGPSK
Chain of Pim-2 (Q9P1W9 whole entry): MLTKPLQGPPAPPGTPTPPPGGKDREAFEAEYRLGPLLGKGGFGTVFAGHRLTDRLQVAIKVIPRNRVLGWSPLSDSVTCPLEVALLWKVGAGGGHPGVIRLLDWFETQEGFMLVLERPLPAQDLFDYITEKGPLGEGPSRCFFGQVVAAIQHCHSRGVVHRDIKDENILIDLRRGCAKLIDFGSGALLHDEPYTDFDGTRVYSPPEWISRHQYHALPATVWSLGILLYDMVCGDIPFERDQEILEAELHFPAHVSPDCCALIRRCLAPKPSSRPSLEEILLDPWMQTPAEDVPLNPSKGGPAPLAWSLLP
Chain of FLT3wt (P36888 27-993): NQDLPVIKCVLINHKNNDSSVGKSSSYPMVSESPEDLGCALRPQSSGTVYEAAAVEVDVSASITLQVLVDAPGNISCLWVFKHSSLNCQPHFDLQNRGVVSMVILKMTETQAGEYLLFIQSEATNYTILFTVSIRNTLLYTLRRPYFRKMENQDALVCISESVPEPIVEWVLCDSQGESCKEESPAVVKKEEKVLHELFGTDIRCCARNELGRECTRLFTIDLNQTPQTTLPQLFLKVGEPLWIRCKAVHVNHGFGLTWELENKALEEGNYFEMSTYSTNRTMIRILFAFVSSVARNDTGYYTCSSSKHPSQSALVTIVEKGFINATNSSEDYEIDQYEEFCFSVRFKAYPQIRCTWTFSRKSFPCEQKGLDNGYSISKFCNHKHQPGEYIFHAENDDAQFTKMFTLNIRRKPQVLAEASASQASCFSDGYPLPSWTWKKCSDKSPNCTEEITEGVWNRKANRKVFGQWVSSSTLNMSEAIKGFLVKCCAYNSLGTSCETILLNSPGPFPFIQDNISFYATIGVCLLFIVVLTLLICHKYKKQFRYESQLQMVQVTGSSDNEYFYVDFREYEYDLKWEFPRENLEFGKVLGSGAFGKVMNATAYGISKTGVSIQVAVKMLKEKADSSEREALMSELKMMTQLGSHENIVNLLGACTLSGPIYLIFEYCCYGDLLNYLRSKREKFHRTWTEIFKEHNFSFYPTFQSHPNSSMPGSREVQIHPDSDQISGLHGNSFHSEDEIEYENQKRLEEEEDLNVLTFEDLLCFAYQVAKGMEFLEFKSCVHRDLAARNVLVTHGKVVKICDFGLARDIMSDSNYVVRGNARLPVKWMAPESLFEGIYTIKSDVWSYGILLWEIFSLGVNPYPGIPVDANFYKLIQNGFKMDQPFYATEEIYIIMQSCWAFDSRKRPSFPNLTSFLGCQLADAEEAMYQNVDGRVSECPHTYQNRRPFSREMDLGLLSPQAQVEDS

On to `CC(C)n1c(N2CCNC[C@H]2C)nc2c([N+](=O)[O-])c(Br)c(Br)cc21` [Example 1AO], for which the “Pim-1 % INH (1 μM)” value in test [1] is given as 95%. Further, the IC50 was 1700 nM in test [2] (72 hours), 600 nM in test [5] (72 hours) and 3800 nM in test [7] (72 hours). Moreover, in [3], the “Pim-3 % INH (1 μM)” value is reported as 59%. For the same compound, the “Flt3wt % INH (1 μM)” value in test [4] was found to be 26%. Besides, the “DYRK1A % INH (1 μM)” value in test [6] amounted to 15%.

For the compound `Cl.NC1CCCN(c2nc3c([N+](=O)[O-])c(Br)c(Br)cc3n2CC2CC2)C1` (stereo not shown) [Example 1AV], the “Pim-1 % INH (1 μM)” value in test [1] is given as over 95%. Besides, the IC50 came to 4500 nM in test [2] (72 hours) and 1400 nM in test [5] (72 hours). Besides, the “Pim-3 % INH (1 μM)” value in test [3] is on record as 91%. Moreover, the “Flt3wt % INH (1 μM)” value in test [4] is listed as 37%. In addition, the “DYRK1A % INH (1 μM)” value in [6] worked out at 46%. In [8], the “Pim-2 % INH (1 μM)” value is 54%. Further, in [9], the “CDK2/E % INH (1 μM)” value is given as 12%.

Take `Cl.N[C@H]1CCN(c2nc3c([N+](=O)[O-])c(Br)c(Br)cc3n2CC2CC2)C1` [Example 1CK]: the “Pim-1 % INH (1 μM)” value in [1] is recorded as over 95%. Also, the values for the IC50 in test [2] (72 hours), in test [5] (72 hours) and in test [7] (72 hours) were 5300 nM, 2000 nM and 6900 nM, respectively. Besides, the “Flt3wt % INH (1 μM)” value in test [4] was 30%. In test [6], the “DYRK1A % INH (1 μM)” value is 23%. Further, the “CDK2/E % INH (1 μM)” value in [9] was found to be 24%.

Turning to `CC(C)n1c(N2CCC(N)CC2)nc2c([N+](=O)[O-])c(Br)c(Br)cc21` [Example 1CP], the “Pim-1 % INH (1 μM)” value in [1] is recorded as over 95%. For the same compound, the IC50 in test [2] (72 hours) is 1200 nM; in test [5] (72 hours) it was 600 nM; in [7] (72 hours), 5800 nM. In addition, the “Flt3wt % INH (1 μM)” value in [4] is on record as 32%. In addition, the “DYRK1A % INH (1 μM)” value in [6] was 44%. Moreover, the “CDK2/E % INH (1 μM)” value in test [9] is 39%.

Turning to `CC(C)n1c(NC2CCC(N)CC2)nc2c([N+](=O)[O-])c(Br)c(Br)cc21` (stereo not shown) [Example 1CQ], the “Pim-1 % INH (1 μM)” value in test [1] is recorded as over 95%. Besides, the IC50 came out at 2000 nM in test [2] (Homo sapiens, HepG2, 72 h); 1700 nM in test [5] (72 hours); 6000 nM in test [7] (72 hours). For the same compound, the “Flt3wt % INH (1 μM)” value in [4] is 17%. In addition, the “DYRK1A % INH (1 μM)” value in [6] is given as 28%. Besides, in test [9], the “CDK2/E % INH (1 μM)” value is 50%.

As to `CCn1c(N2CCNC[C@@H]2C)nc2c(C#N)c(Br)c(Br)cc21` [Example 1DP], the inhibition at 1 µM is over 95% in [1], 57% in test [4] and over 95% in test [6]. The IC50 in test [2] (Homo sapiens, HepG2, 72 h) stood at 200 nM; in [5] (Homo sapiens, MV4-11, 72 h) it was 100 nM; in [7] (Homo sapiens, 72 h), 500 nM.

Regarding `CCn1c(NCC(O)CN)nc2c([N+](=O)[O-])c(Br)c(Br)cc21` (stereo not shown) [Example 1G], the inhibition at 1 µM in test [1] was 76%; in test [3], 57%; in test [4] it was 6%; in test [6], 12%; in test [8], 34%; in [9], under 5%.

Turning to `CC(C)n1c(NCC(O)CN)nc2c([N+](=O)[O-])c(Br)c(Br)cc21` (stereo not shown) [Example 1W], the inhibition at 1 µM in test [1] is 89%; in test [3], 92%; in test [4] it was under 5%; in [6], 40%; in [9], under 5%.

For the compound `CC(C)n1c(N2CCCC(CO)C2)nc2c([N+](=O)[O-])c(Br)c(Br)cc21` (stereo not shown) [Example 22H, {1-[5,6-dibromo-4-nitro-1-(propan-2-yl)-1H-1,3-benzodiazol-2-yl]piperidin-3-yl}methanol], the inhibition at 1 µM in [1] was over 95%; in test [3], 71%; in [4] it was under 5%; in [9] it was 16%.

Consider `CC(C)n1c(N2CCOCC2)nc2c([N+](=O)[O-])c(Br)c(Br)cc21` [Example 22K, 5,6-dibromo-2-(morpholin-4-yl)-4-nitro-1-(propan-2-yl)-1H-1,3-benzodiazole], for which the inhibition at 1 µM is over 95% in [1]; 85% in test [3]; 23% in test [4]; 28% in [6]; 40% in test [8]; under 5% in test [9]. In [5] (Homo sapiens, MV4-11, 72 h), the IC50 stood at 4100 nM.
